# Measured values taken from PubChem BioAssay AID248 (DTP/NCI, 2004).
# “And” between values parts separate entries of the source, which are not always exact repeats. Identical values can stand only once. Inconclusive results and toxic doses are left out.
# Tested on: L1210 leukemia ip in BDF1 mice, survival T/C
# Experiment: NCI In Vivo Anticancer Drug Screen. Data for tumor model L1210 Leukemia (intraperitoneal) in B6D2F1 (BDF1) mice
# Conditions: endpoint: mean survival time, higher = longer survival
# In short: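 Transplantable tumor model; survival measured in treated vs vehicle control mice. Value = treated/control.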
# [1] = dose: 100.0 mg/kg/injection, schedule: Q01DX001 (ip), vehicle: saline
# [2] = dose: 100.0 mg/kg/injection, schedule: Q04DX003 (ip), vehicle: saline
# [3] = dose: 200.0 mg/kg/injection, schedule: Q01DX001 (ip), vehicle: saline
# [4] = dose: 200.0 mg/kg/injection, schedule: Q04DX003 (ip), vehicle: saline
# [5] = dose: 400.0 mg/kg/injection, schedule: Q01DX001 (ip), vehicle: saline
# [6] = dose: 400.0 mg/kg/injection, schedule: Q04DX003 (ip), vehicle: saline
# [7] = dose: 50.0 mg/kg/injection, schedule: Q01DX009 (ip), vehicle: Klucel (hydroxypropylcellulose) (HPC)
# [8] = dose: 100.0 mg/kg/injection, schedule: Q01DX009 (ip), vehicle: Klucel (hydroxypropylcellulose) (HPC)
# [9] = dose: 100.0 mg/kg/injection, schedule: Q04DX003 (ip), vehicle: Klucel (hydroxypropylcellulose) (HPC)
# [10] = dose: 200.0 mg/kg/injection, schedule: Q01DX009 (ip), vehicle: Klucel (hydroxypropylcellulose) (HPC)
# [11] = dose: 200.0 mg/kg/injection, schedule: Q04DX003 (ip), vehicle: Klucel (hydroxypropylcellulose) (HPC)
# [12] = dose: 400.0 mg/kg/injection, schedule: Q04DX003 (ip), vehicle: Klucel (hydroxypropylcellulose) (HPC)
# [13] = dose: 25.0 mg/kg/injection, schedule: Q01DX009 (ip), vehicle: Klucel (hydroxypropylcellulose) (HPC)
# [14] = dose: 100.0 mg/kg/injection, schedule: Q04DX002 (ip), vehicle: saline
# [15] = dose: 200.0 mg/kg/injection, schedule: Q04DX002 (ip), vehicle: Klucel (hydroxypropylcellulose) (HPC)
# [16] = dose: 200.0 mg/kg/injection, schedule: Q04DX002 (ip), vehicle: saline
compound,measurement,setting,value
CCOC(=O)c1csc(CCNC(=O)c2ccccc2)n1,T/C,[1],99 % of control
same,T/C,"dose: 100.0 mg/kg/injection, schedule: Q01DX009 (ip), vehicle: saline",108 % of control
same,T/C,[2],96 % of control
same,T/C,[3],102 % of control
same,T/C,"dose: 200.0 mg/kg/injection, schedule: Q01DX009 (ip), vehicle: saline",97 % of control
same,T/C,[4],98 % of control
same,T/C,[5],96 % of control
same,T/C,"dose: 400.0 mg/kg/injection, schedule: Q01DX009 (ip), vehicle: saline",100 % of control
same,T/C,[6],95 % of control
[O-]/[N+](=C\c1ccccc1)c1ccccc1,T/C,"dose: 50.0 mg/kg/injection, schedule: Q01DX001 (ip), vehicle: saline",110 % of control
same,T/C,[1],110 % of control
same,T/C,[3],108 % of control
C=CCSCC(=O)c1ccccc1,T/C,[7],90 % of control
same,T/C,[8],94 % of control
same,T/C,[9],101 % of control
same,T/C,[10],90 % of control
same,T/C,[11],97 % of control
same,T/C,[12],100 % of control
CCCCCCC(/C=N\Nc1nnc(N/N=C\C(=C\c2ccccc2)CCCCCC)c2ccccc12)=C/c1ccccc1,T/C,"dose: 50.0 mg/kg/injection, schedule: Q01DX001 (ip), vehicle: other",109 % of control
same,T/C,"dose: 100.0 mg/kg/injection, schedule: Q01DX001 (ip), vehicle: other",103 % of control
same,T/C,"dose: 200.0 mg/kg/injection, schedule: Q01DX001 (ip), vehicle: other",111 % of control
same,T/C,"dose: 400.0 mg/kg/injection, schedule: Q01DX001 (ip), vehicle: other",105 % of control
CC(=O)NCCCC(=O)O,T/C,[2],101 % of control
same,T/C,[4],103 % of control
same,T/C,[6],100 % of control
COc1ccc(C2NC(=O)N3C(c4ccc(OC)c(OC)c4)NC(=O)N23)cc1OC (centres undefined),T/C,"dose: 100.0 mg/kg/injection, schedule: Q04DX002 (ip), vehicle: gum acacia",98 % of control
same,T/C,"dose: 200.0 mg/kg/injection, schedule: Q04DX002 (ip), vehicle: gum acacia",102 % of control
same,T/C,"dose: 400.0 mg/kg/injection, schedule: Q04DX002 (ip), vehicle: gum acacia",105 % of control
Cc1noc2c1ncc[n+]2[O-],T/C,"dose: 5.0 mg/kg/injection, schedule: Q01DX009 (ip), vehicle: saline with Tween-80",89 % of control
same,T/C,"dose: 10.0 mg/kg/injection, schedule: Q01DX009 (ip), vehicle: saline with Tween-80",91 % of control
same,T/C,"dose: 20.0 mg/kg/injection, schedule: Q01DX009 (ip), vehicle: saline with Tween-80",86 % of control
O=C1OC(CN2CCOCC2)CN1/N=C/c1ccc([N+](=O)[O-])o1 (centres undefined),T/C,[13],104 % of control
same,T/C,[7],92 % of control
same,T/C,"dose: 100.0 mg/kg/injection, schedule: Q01DX001 (ip), vehicle: saline with Tween-80",97 % of control
same,T/C,[8],101 % of control
same,T/C,"dose: 100.0 mg/kg/injection, schedule: Q04DX002 (ip), vehicle: Klucel (hydroxypropylcellulose) (HPC)",310 % of control
same,T/C,[14],105 % of control
same,T/C,"dose: 200.0 mg/kg/injection, schedule: Q01DX001 (ip), vehicle: saline with Tween-80",97 % of control
same,T/C,[15],90 % of control
same,T/C,[16],98 % of control
same,T/C,"dose: 400.0 mg/kg/injection, schedule: Q01DX001 (ip), vehicle: saline with Tween-80",104 % of control
NC(CCl)=NC1CC1,T/C,"dose: 25.0 mg/kg/injection, schedule: Q04DX002 (ip), vehicle: saline",106 % of control
same,T/C,"dose: 50.0 mg/kg/injection, schedule: Q04DX002 (ip), vehicle: saline",106 % of control
same,T/C,[14],110 % of control
Cc1cc(S(=O)(=O)F)cc(Cl)c1S,T/C,"dose: 25.0 mg/kg/injection, schedule: Q04DX002 (ip), vehicle: saline with Tween-80",99 % of control
same,T/C,"dose: 50.0 mg/kg/injection, schedule: Q04DX002 (ip), vehicle: saline with Tween-80",92 % of control
CN(C)CCCn1c2nc(=O)[nH]c(=O)c-2nc2cc(Cl)c(Cl)cc21,T/C,"dose: 4.0 mg/kg/injection, schedule: Q01DX Z (ip), vehicle: methylcellulose (MC)",117 % of control
Nc1cc2ccc(S(=O)(=O)O)cc2cc1S(=O)(=O)O,T/C,[9],100 % of control
same,T/C,[11],97 % of control
same,T/C,[12],91 % of control
Cc1cc(C)c(N)c(Br)c1,T/C,"dose: 25.0 mg/kg/injection, schedule: Q01DX009 (ip), vehicle: saline with Tween-80",88 % of control
same,T/C,"dose: 25.0 mg/kg/injection, schedule: Q04DX003 (ip), vehicle: Klucel (hydroxypropylcellulose) (HPC)",95 % of control
same,T/C,"dose: 50.0 mg/kg/injection, schedule: Q01DX009 (ip), vehicle: saline with Tween-80",87 % of control
same,T/C,"dose: 50.0 mg/kg/injection, schedule: Q04DX003 (ip), vehicle: Klucel (hydroxypropylcellulose) (HPC)",97 % of control
same,T/C,"dose: 100.0 mg/kg/injection, schedule: Q01DX001 (ip), vehicle: Klucel (hydroxypropylcellulose) (HPC)",95 % of control
same,T/C,[9],93 % of control and 90 % of control
same,T/C,"dose: 100.0 mg/kg/injection, schedule: Q04DX003 (ip), vehicle: saline with Tween-80",91 % of control
same,T/C,"dose: 200.0 mg/kg/injection, schedule: Q01DX001 (ip), vehicle: Klucel (hydroxypropylcellulose) (HPC)",97 % of control
[N-]=[N+]=C1C(Cl)=C(Cl)C(Cl)=C1Cl,T/C,"dose: 75.0 mg/kg/injection, schedule: Q01DX001 (ip), vehicle: other",96 % of control
same,T/C,"dose: 150.0 mg/kg/injection, schedule: Q01DX001 (ip), vehicle: other",102 % of control
CC1c2cc(O)c(O)cc2CCN1C (centres undefined),T/C,"dose: 75.0 mg/kg/injection, schedule: Q01DX001 (ip), vehicle: saline",104 % of control
same,T/C,"dose: 150.0 mg/kg/injection, schedule: Q01DX001 (ip), vehicle: saline",110 % of control
O=c1nc2n(CCC[N+](=O)[O-])c3ccccc3nc-2c(=O)[nH]1,T/C,[1],102 % of control
same,T/C,[2],88 % of control
same,T/C,[3],98 % of control
same,T/C,[4],96 % of control
same,T/C,[5],102 % of control
same,T/C,[6],115 % of control
NC(=S)N1CCOCC1,T/C,[14],97 % of control
same,T/C,[16],101 % of control
same,T/C,"dose: 400.0 mg/kg/injection, schedule: Q04DX002 (ip), vehicle: saline",108 % of control
CC[N+]12CC[N+](CC)(CC1)C2,T/C,[1],103 % of control
same,T/C,[3],101 % of control
same,T/C,[5],91 % of control
COc1ccc(C(=O)NC(=O)Nc2ccccc2)cc1,T/C,"dose: 15.0 mg/kg/injection, schedule: Q01DX001 (ip), vehicle: saline",97 % of control
same,T/C,"dose: 30.0 mg/kg/injection, schedule: Q01DX001 (ip), vehicle: saline",91 % of control
same,T/C,"dose: 60.0 mg/kg/injection, schedule: Q01DX001 (ip), vehicle: saline",92 % of control
CC(=O)Oc1c2c(n3c1CCC3)CC(C)(C)CC2=O,T/C,"dose: 75.0 mg/kg/injection, schedule: Q04DX002 (ip), vehicle: Klucel (hydroxypropylcellulose) (HPC)",102 % of control
same,T/C,"dose: 150.0 mg/kg/injection, schedule: Q04DX002 (ip), vehicle: Klucel (hydroxypropylcellulose) (HPC)",97 % of control
same,T/C,"dose: 300.0 mg/kg/injection, schedule: Q04DX002 (ip), vehicle: Klucel (hydroxypropylcellulose) (HPC)",87 % of control
CCC(=O)C1(c2ccccc2)CCNCC1,T/C,[13],102 % of control
same,T/C,[7],106 % of control
same,T/C,[8],98 % of control and 118 % of control
same,T/C,[15],106 % of control
Cc1c2ccn(O)cc2cc2c1nc1ccccc12,T/C,"dose: 18.75 mg/kg/injection, schedule: Q01DX009 (ip), vehicle: other",116 % of control
same,T/C,"dose: 37.5 mg/kg/injection, schedule: Q01DX009 (ip), vehicle: other",114 % of control
same,T/C,"dose: 75.0 mg/kg/injection, schedule: Q01DX009 (ip), vehicle: other",112 % of control
same,T/C,"dose: 150.0 mg/kg/injection, schedule: Q01DX009 (ip), vehicle: other",110 % of control
CCCCCCCCCCCCCCCCCCOc1ccccn1,T/C,[8],97 % of control
same,T/C,[9],98 % of control
same,T/C,[10],96 % of control
same,T/C,[11],93 % of control
same,T/C,"dose: 400.0 mg/kg/injection, schedule: Q01DX009 (ip), vehicle: Klucel (hydroxypropylcellulose) (HPC)",91 % of control
same,T/C,[12],92 % of control
CCn1c(N)c(N=O)c(=O)[nH]c1=O,T/C,"dose: 100.0 mg/kg/injection, schedule: Q01DX009 (ip), vehicle: gum acacia",95 % of control
same,T/C,"dose: 200.0 mg/kg/injection, schedule: Q01DX009 (ip), vehicle: gum acacia",99 % of control
CNC(=O)NC1CCOCC1,T/C,[1],100 % of control
same,T/C,[3],96 % of control
same,T/C,[5],96 % of control
